Source: US8252737B2, “Antimicrobial peptides and methods of use” (priority 2004, dated 2012)
Square brackets hold non-standard residues; d marks the D form. Peptide text beside a SMILES is read from it.

Experiment: RP-HPLC temperature profiling (hydrophobicity and self-association/dimerization parameter PA)
Type: physicochemical
Settings: for tR (min) 5° C.: RP-HPLC retention time at 5° C. during temperature profiling (measure of hydrophobicity); for tR (min) 80° C.: RP-HPLC retention time at 80° C. during temperature profiling; for tR (min) Max: maximal RP-HPLC retention time during temperature profiling 5-80° C.; for PA (min) association parameter: maximal retention time difference relative to control peptide C within 5-80° C.; for ΔtR (X-PSL) (min) 5° C. / ΔtR (X-PSL) (min) 80° C.: polar face substitutions; for ΔtR (X-PSL) (min) 5° C.: retention time difference relative to native peptide V681 (PSL) at 5° C.; for ΔtR (X-PSL) (min) 5° C. / ΔtR (X-PSL) (min) 80° C. / ΔtR (X-NVL) (min) 5° C. / ΔtR (X-NVL) (min) 80° C.: relative hydrophobicity; for ΔtR (X-PSL) (min) 80° C.: retention time difference relative to native peptide V681 (PSL) at 80° C.; for ΔtR (X-NVL) (min) 5° C.: retention time difference relative to native peptide V681 (NVL) at 5° C.; for ΔtR (X-NVL) (min) 80° C.: retention time difference relative to native peptide V681 (NVL) at 80° C.
How it was run: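 RP-HPLC retention times recorded over temperature profiling from 5°C to 80°C, with retention relative to native V681 at each limit used as hydrophobicity. Self-association parameter PA defined as the maximal change in retention time from 5°C, after subtracting that of monomeric random-coil control peptide C.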

Compound | tR (min) 5° C. [min] | tR (min) 80° C. [min] | tR (min) Max [min] | PA (min) association parameter [min] | ΔtR (X-PSL) (min) 5° C. [min] | ΔtR (X-PSL) (min) 80° C. [min] | ΔtR (X-NVL) (min) 5° C. (non-polar face substitutions) [min] | ΔtR (X-NVL) (min) 80° C. (non-polar face substitutions) [min] | decrease in hydrophobicity relative to NVL (V681) (RP-HPLC retention time difference at 80° C., non-polar face substitutions) [min]
CC[C@H](C)[C@H](NC(=O)[C@H](C)NC(=O)[C@H](CCCCN)NC(=O)[C@H](CC(C)C)NC(=O)[C@H](C)NC(=O)[C@@H](NC(=O)[C@H](Cc1c[nH]cn1)NC(=O)[C@H](CC(C)C)NC(=O)[C@@H](NC(=O)[C@@H](NC(=O)[C@H](CCCCN)NC(=O)[C@@H](NC(=O)[C@H](C)NC(=O)[C@@H](C)NC(=O)[C@H](CCCCN)NC(=O)[C@H](Cc1ccccc1)NC(=O)[C@@H](NC(=O)[C@H](CCCCN)NC(=O)[C@H](CC(C)C)NC(=O)[C@H](Cc1ccccc1)NC(=O)[C@H](CO)NC(=O)[C@H](CCCCN)NC(=O)[C@H](Cc1c[nH]c2ccccc12)NC(=O)[C@H](CCCCN)NC(C)=O)[C@@H](C)O)C(C)C)[C@@H](C)O)C(C)C)[C@@H](C)O)C(=O)N[C@@H](CO)C(=O)N[C@@H](CO)C(N)=O [PAD] (Ac-KWKSFLKTFK[dA]AVKTVLHTALKAISS-NH2) | 45.19 | 42.57 | 46.36 | 2.82 | -2.91 | -3.26 | – | – | –
CC[C@H](C)[C@H](NC(=O)[C@H](C)NC(=O)[C@H](CCCCN)NC(=O)[C@H](CC(C)C)NC(=O)[C@H](C)NC(=O)[C@@H](NC(=O)[C@H](Cc1c[nH]cn1)NC(=O)[C@H](CC(C)C)NC(=O)[C@@H](NC(=O)[C@@H](NC(=O)[C@H](CCCCN)NC(=O)[C@@H](NC(=O)[C@H](C)NC(=O)[C@@H](CCCCN)NC(=O)[C@H](CCCCN)NC(=O)[C@H](Cc1ccccc1)NC(=O)[C@@H](NC(=O)[C@H](CCCCN)NC(=O)[C@H](CC(C)C)NC(=O)[C@H](Cc1ccccc1)NC(=O)[C@H](CO)NC(=O)[C@H](CCCCN)NC(=O)[C@H](Cc1c[nH]c2ccccc12)NC(=O)[C@H](CCCCN)NC(C)=O)[C@@H](C)O)C(C)C)[C@@H](C)O)C(C)C)[C@@H](C)O)C(=O)N[C@@H](CO)C(=O)N[C@@H](CO)C(N)=O [PKD] (Ac-KWKSFLKTFK[dK]AVKTVLHTALKAISS-NH2) | 42.20 | 39.29 | 42.87 | 2.23 | -5.90 | -6.54 | – | – | –
CC[C@H](C)[C@H](NC(=O)[C@H](C)NC(=O)[C@H](CCCCN)NC(=O)[C@H](CC(C)C)NC(=O)[C@H](C)NC(=O)[C@@H](NC(=O)[C@H](Cc1c[nH]cn1)NC(=O)[C@H](CC(C)C)NC(=O)[C@@H](NC(=O)[C@@H](NC(=O)[C@H](CCCCN)NC(=O)[C@@H](NC(=O)[C@H](C)NC(=O)[C@@H](CC(C)C)NC(=O)[C@H](CCCCN)NC(=O)[C@H](Cc1ccccc1)NC(=O)[C@@H](NC(=O)[C@H](CCCCN)NC(=O)[C@H](CC(C)C)NC(=O)[C@H](Cc1ccccc1)NC(=O)[C@H](CO)NC(=O)[C@H](CCCCN)NC(=O)[C@H](Cc1c[nH]c2ccccc12)NC(=O)[C@H](CCCCN)NC(C)=O)[C@@H](C)O)C(C)C)[C@@H](C)O)C(C)C)[C@@H](C)O)C(=O)N[C@@H](CO)C(=O)N[C@@H](CO)C(N)=O [PLD] (Ac-KWKSFLKTFK[dL]AVKTVLHTALKAISS-NH2) | 44.73 | 42.14 | 45.85 | 2.82 | -3.37 | -3.69 | – | – | –
CC[C@H](C)[C@H](NC(=O)[C@H](C)NC(=O)[C@H](CCCCN)NC(=O)[C@H](CC(C)C)NC(=O)[C@H](C)NC(=O)[C@@H](NC(=O)[C@H](Cc1c[nH]cn1)NC(=O)[C@H](CC(C)C)NC(=O)[C@@H](NC(=O)[C@@H](NC(=O)[C@H](CCCCN)NC(=O)[C@@H](NC(=O)[C@H](C)NC(=O)[C@@H](CO)NC(=O)[C@H](CCCCN)NC(=O)[C@H](Cc1ccccc1)NC(=O)[C@@H](NC(=O)[C@H](CCCCN)NC(=O)[C@H](CC(C)C)NC(=O)[C@H](Cc1ccccc1)NC(=O)[C@H](CO)NC(=O)[C@H](CCCCN)NC(=O)[C@H](Cc1c[nH]c2ccccc12)NC(=O)[C@H](CCCCN)NC(C)=O)[C@@H](C)O)C(C)C)[C@@H](C)O)C(C)C)[C@@H](C)O)C(=O)N[C@@H](CO)C(=O)N[C@@H](CO)C(N)=O [PSD] | 45.47 | 42.59 | 46.60 | 2.73 | -2.63 | -3.24 | – | – | –
CC[C@H](C)[C@H](NC(=O)[C@H](C)NC(=O)[C@H](CCCCN)NC(=O)[C@H](CC(C)C)NC(=O)[C@H](C)NC(=O)[C@@H](NC(=O)[C@H](Cc1c[nH]cn1)NC(=O)[C@H](CC(C)C)NC(=O)[C@@H](NC(=O)[C@@H](NC(=O)[C@H](CCCCN)NC(=O)[C@@H](NC(=O)[C@H](C)NC(=O)[C@H](NC(=O)[C@H](CCCCN)NC(=O)[C@H](Cc1ccccc1)NC(=O)[C@@H](NC(=O)[C@H](CCCCN)NC(=O)[C@H](CC(C)C)NC(=O)[C@H](Cc1ccccc1)NC(=O)[C@H](CO)NC(=O)[C@H](CCCCN)NC(=O)[C@H](Cc1c[nH]c2ccccc12)NC(=O)[C@H](CCCCN)NC(C)=O)[C@@H](C)O)C(C)C)C(C)C)[C@@H](C)O)C(C)C)[C@@H](C)O)C(=O)N[C@@H](CO)C(=O)N[C@@H](CO)C(N)=O [PVD] (Ac-KWKSFLKTFK[dV]AVKTVLHTALKAISS-NH2) | 42.96 | 40.51 | 43.83 | 2.54 | -5.14 | -5.32 | – | – | –
Ac-KWKSFLKTFKSAGKTVLHTALKAISS-NH2 [NG] | 39.96 | 36.74 | 40.22 | 1.64 | – | – | -8.14 | -9.09 | –
Ac-KWKSFLKTFKSALKTVLHTALKAISS-NH2 [NLL] | 48.16 | 47.02 | 50.45 | 4.22 | – | – | 0.06 | 1.19 | –
Ac-KWKSFLKTFKSASKTVLHTALKAISS-NH2 [NSL] | 40.72 | 37.62 | 41.08 | 1.82 | – | – | -7.38 | -8.21 | -8.21
